In paper PMC12633397 (bioRxiv, 2025):

Molecular target: T1, esVHPO (Enhygromyxa salina, UniProt A0A0C2CTX7)
T1 sequence (A0A0C2CTX7 1-528): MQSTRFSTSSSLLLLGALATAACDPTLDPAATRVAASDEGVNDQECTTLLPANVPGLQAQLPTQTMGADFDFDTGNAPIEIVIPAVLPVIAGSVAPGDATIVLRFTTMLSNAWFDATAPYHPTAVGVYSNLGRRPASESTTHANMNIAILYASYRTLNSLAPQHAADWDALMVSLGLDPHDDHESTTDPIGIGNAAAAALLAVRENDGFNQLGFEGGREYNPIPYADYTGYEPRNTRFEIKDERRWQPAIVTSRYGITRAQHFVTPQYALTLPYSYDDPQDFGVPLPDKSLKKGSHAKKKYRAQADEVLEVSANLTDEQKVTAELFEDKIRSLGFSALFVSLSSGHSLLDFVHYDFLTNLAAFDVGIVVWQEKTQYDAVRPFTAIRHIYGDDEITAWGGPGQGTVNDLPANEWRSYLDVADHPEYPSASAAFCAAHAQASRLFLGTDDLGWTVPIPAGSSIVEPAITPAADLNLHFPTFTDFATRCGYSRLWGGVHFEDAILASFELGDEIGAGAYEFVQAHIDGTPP
Assay: UPLC-MS of Br-MHQ formation, steady-state kinetics
Type: biochemical
Conditions: 1 mM H2O2, 20 mM KBr, 100 μM Na3VO4, 20 mM HEPES-KOH, 10% glycerol, 28 °C; Hill fit, positive cooperativity; labelled compound (deuterated)

Cc1cc(=O)c2ccccc2[nH]1 [C3-deuterated MHQ]
K0.5: The steady state kinetics for C3-Deuterated-MHQ (D-MHQ) was performed precisely as for undeuterated MHQ
